Data reported in ChEMBL document CHEMBL5537143, “Synthesis and antimicrobial properties of guanidine-functionalized labdane type diterpenoids” (Eur J Med Chem, 2024).
In brackets after ≈: the same amount, converted by molar mass.

Legend:
Assay type in all cases: functional
Candida albicans [1] = assay: Antifungal activity against Candida albicans ATCC 90028 assessed as reduction in fungal growth incubated for 48 hrs by CLSI based analysis
Candida albicans [2] = assay: Antifungal activity against Candida albicans ATCC 10231 assessed as reduction in fungal growth incubated for 48 hrs by CLSI based analysis; settings: read-out: MIC100
Staphylococcus aureus [3] = assay: Antimicrobial activity against methicillin resistant Staphylococcus aureus 43300 assessed as inhibition of microbial growth incubated for 24 hrs by broth-microdilution assay
[4] = tested on: Staphylococcus epidermidis; assay: Antimicrobial activity against Staphylococcus epidermidis ATCC 35984 assessed as inhibition of microbial growth incubated for 24 hrs by broth-microdilution assay; settings: Staphylococcus epidermidis
[5] = tested on: Staphylococcus epidermidis; assay: Antimicrobial activity against Staphylococcus epidermidis ATCC 12228 assessed as inhibition of microbial growth incubated for 24 hrs by broth-microdilution assay; settings: Staphylococcus epidermidis
Staphylococcus aureus [6] = assay: Antimicrobial activity against Staphylococcus aureus 29213 assessed as inhibition of microbial growth incubated for 24 hrs by broth-microdilution assay
Klebsiella pneumoniae = assay: Antimicrobial activity against Klebsiella pneumoniae ATCC BAA1705 assessed as inhibition of microbial growth incubated for 24 hrs by broth-microdilution assay
Staphylococcus aureus [7] = assay: Antimicrobial activity against Staphylococcus aureus ATCC 43300 assessed as inhibition of microbial growth incubated for 24 hrs by broth-microdilution assay; settings: Staphylococcus aureus, ATCC 43300, read-out: MIC100
Staphylococcus aureus [8] = assay: Antimicrobial activity against Staphylococcus aureus ATCC 29213 assessed as inhibition of microbial growth incubated for 24 hrs by broth-microdilution assay; settings: Staphylococcus aureus, ATCC 29213, read-out: MIC100

Molecule | MIC (Staphylococcus aureus [3]; read-out: MIC) | MIC (Candida albicans [1]; read-out: MIC) | MIC ([4]; ATCC 35984, read-out: MIC) | MIC ([5]; ATCC 12228, read-out: MIC) | MIC (Staphylococcus aureus [6]) | also measured
C[C@@H](c1ncncc1F)[C@](O)(Cn1cncn1)c1ccc(F)cc1F [VORICONAZOLE] | – | – | – | – | – | MIC (Candida albicans [1]; read-out: MIC100): ≤ 0.12 µg/mL; MIC (Candida albicans [2]): ≥ 1 µg/mL
C[C@@H]1[C@H](O)[C@@H](C)/C=C/C=C/C=C/C=C/C=C/C=C/C=C/[C@H](O[C@@H]2O[C@H](C)[C@@H](O)[C@H](N)[C@@H]2O)C[C@@H]2O[C@](O)(C[C@@H](O)C[C@@H](O)[C@H](O)CC[C@@H](O)C[C@@H](O)CC(=O)O[C@H]1C)C[C@H](O)[C@H]2C(=O)O [AMPHOTERICIN B] | – | – | – | – | – | MIC (Candida albicans [1]; read-out: MIC100): 4 µg/mL (≈ 4.33 µM); MIC (Candida albicans [2]): 4 µg/mL (≈ 4.33 µM)
CC1=C(CC/C=C(/C)C(=O)NC(=N)N)[C@@]2(C)CCCC(C)(C)[C@@H]2CC1 | 4 µg/mL | 8 µg/mL (≈ 23.2 µM) | 4 µg/mL | 4 µg/mL | 4 µg/mL | –
CC1=C(CC/C=C(\C)C(=O)N=C(N)N)[C@@]2(C)CCCC(C)(C)[C@@H]2CC1 | 4 µg/mL | 8 µg/mL (≈ 23.2 µM) | 4 µg/mL | 4 µg/mL | 4 µg/mL | –
GENTAMICIN | – | – | – | – | – | MIC100 (Klebsiella pneumoniae): 4 µg/mL
Cc1onc(-c2ccccc2)c1C(=O)N[C@@H]1C(=O)N2[C@@H]1SC(C)(C)[C@@H]2C(=O)O [OXACILLIN] | – | – | – | – | – | MIC (Staphylococcus aureus [7]): 2 µg/mL; MIC (Staphylococcus aureus [3]; read-out: MIC100): 10 µg/mL; MIC (Staphylococcus aureus [8]): 2 µg/mL; MIC ([4]; ATCC 35984, read-out: MIC100): 2 µg/mL; MIC ([5]; ATCC 12228, read-out: MIC100): 2 µg/mL
CC(=O)O[C@](C)(CCC1[C@](C)(OC(C)=O)CC[C@H]2C(C)(C)CCC[C@]12C)C(=O)N=C(N)N (stereo not given in full) | 4 µg/mL | 16 µg/mL (≈ 35.4 µM) | 4 µg/mL | 4 µg/mL | 4 µg/mL | –
